Data as given in paper PMC10747822 (Pharmaceutics, 2023).

Assays:
[1] = human whole blood (K-EDTA); details: room temperature, up to 2 h
[2] = Pooled human plasma (Li-heparin); details: room temperature, up to 2 h

Substance: Ac-[D-Leu]LLLRVK-amba
- not cleaved [1]: no detectable degradation over at least 2 h
- not cleaved [2]: no detectable degradation over at least 2 h
